Measured values as given in US5346919A, “Anti-bacterial substances and microorganisms which produce them” (Nissan Chemical Industries, Ltd., priority 1992, dated 1994).
≈ marks a conversion by molar mass, not a printed value.

Key:
Botrytis cinerea [1] = test: Test for controlling gray mold on cucumber (prevention test); type: in vivo; conditions: (1-diameter treated/untreated)×100
Procedure: Test for Controlling Gray Mold (Botrytis cinerea) on Cucumber (Prevention Test)
(§1) Onto 1.5 leaf-stage cucumber (variety: Sagamihanjiro) which had been grown in a 7 cm-diameter pot was sprayed, using a spray gun, a drug solution produced by diluting an emulsifiable concentrate containing the present compound with water to the predetermined concentration, at 10 ml per pot.
(§2) On the following day, the first leaf on which was sprayed the drug solution was plucked off, and onto the surface of the leaf was inoculated a mycelia disk which had been prepared from the tip of a cell cluster of Botrytis cinerea cultured at 20° C. for 2 days in a PSA (potato sucrose agar) medium using a 4 mm-diameter cork borer. Then, the cucumber leaf was allowed to stand for 5 days at 20° C. in a moist chamber, the diameter of the diseased spots which formed were measured, and the degree of control was determined according to the following equation. Here, iprodion (trade name: Lobral) was used as a control preparation.
Preventive value=(1-diameter of disease spots of drug-treated group/diameter of disease spots of untreated group)×100

cucumber [2] = test: Toxicity in Sclerotinia rot prevention test on cucumber; type: in vivo, cucumber (variety: Sagamihanjiro)
Procedure: as §1
(§3) On the following day, the first leaf on which was sprayed the drug solution was plucked off, and onto the surface of the leaf was inoculated a mycelia disk which had been prepared from the tip of a cell cluster of Sclerotinia sclerotiorum cultured at 20° C. for 1 day in a PSA medium by using a 4 mm-diameter cork borer. Then, the cucumber leaf was allowed to stand for 3 days at 20° C. in a moist chamber, the diameter of the disease spots which formed were measured measured, and the preventive value was determined according to the following equation.

Botrytis cinerea [3] = test: Test for controlling gray mold on cucumber (curative test); type: in vivo; conditions: (1-length treated/untreated)×100
Procedure: Test for Controling Gral Mold (Botrytis cinerea) on Cucumber (Curative Test)
The first leaf was plucked off from 1.5 leaf-sage cucumber (variety: Sgamihanjiro) which had been grown in a 7 cm-diameter pot, and a mycelia disk of Botrytis cinerea was inoculated in the same manner as in the Experiment 1. Then, the cucumber leaf was allowed to stand for 2 days at 20° C. in a moist chamber, and when the disease spots reached approximately […] in diameter, a drug solution produced by deluting an emulsion containing the present compound with water to the desired concentration was sprayed at 10 ml per leaf using a spray gun, and after drying in air the leaf was allowed to stand for 3 days at 20° C. in a moist chamber.
The lengths of the newly developed diseases spots were measured, and the preventive value was determined using the following equation.
Preventive value=(1-length of diseased spots of drug-treated group/length of diseased spots of untreated group)×100

Sclerotinia sclerotiorum [4] = test: Test for controlling cucumber Sclerotinia rot (prevention test); type: in vivo; conditions: Sclerotinia rot on cucumber, (1-diameter treated/untreated)×100
Procedure: Test for Controling Cucumber Sclerotinia Rot (Sclerotinia sclerotiorum) (Prevention Test)
as §1, §3
Preventive value=(1-diameter of diseased spots of drug-treated group/diameter of disease spots of untreated group)×100

cucumber [5] = test: Toxicity in gray mold prevention test on cucumber; type: in vivo, cucumber (variety: Sagamihanjiro)
Procedure: as §1, §2

Sclerotinia cinerea = test: Minimum growth inhibition concentration, agar plate dilution method; type: cell-based
Text: (§4) The measurement of the minimum growth inhibition concentration (MIC) was made following the agar plate dilution method using an agar medium containing the compound A.

Aspergillus nigar = test: as above; type: cell-based
Text: as §4

Rhynchosporium secalis = test: as above; type: cell-based
Text: as §4

Sclerotinia sclerotiorum [6] = test: as above; type: cell-based
Text: as §4

Botrytis cinerea [7] = test: as above; type: cell-based
Text: as §4

[8] = tested on: platelet aggregation (ADP); test: Anti-platelet aggregation effect, ADP-induced; type: cell-based, Hartley male guinea-pigs; conditions: Cavia porcellus; ADP 5 μM; guinea-pig platelet rich plasma, 37° C., 0.5% DMSO
Procedure: (§5) Blood was collected from the abdominal artery of Hartley male guinea-pigs (weight: about 300 g) into a syringe containing 1/10 volume 3.8% sodium citrate. The blood thus obtained was subjected to a centrifugation at 160×g for 10 minutes at room temperature to obtain platelet rich plasma (PRP). Furthermore, the residue was subjected to a centrifugation at 1500×g for 15 minutes to obtain platelet poor plasma (PPP). The measurement was carried out by diluting PRP with PPP to 300,000/mm^3. The measurement range of transmittance was adjusted to 0% in the case of PRP and to 100% in the case of PPP. Thereafter, a test compound dissolved in 100% dimethylsulfoxide (DMSO) was added to PRP (the final concentration of DMSO: 0.5%). After incubation at 37° C., 1000 rpm for 2 minutes, an aggregating agent was added to measure an aggregation curve. The anti-platelet aggregation effect of the test compound was expressed by a concentration (IC50 :μM) at which the aggregation of control was 50% inhibited. The aggregating agents used were ADP (the final concentration: 5 μM), collagen (the final concentration: 2 μg/ml) and U46619 (the final concentration: 0.5 μM). The measurement of platelet aggregation was carried out using NBS HEMA Tracer 601.

[9] = tested on: platelet aggregation (U46619); test: Anti-platelet aggregation effect, U46619-induced; type: cell-based, Hartley male guinea-pigs; conditions: Cavia porcellus; U46619 0.5 μM; guinea-pig platelet rich plasma, 37° C., 0.5% DMSO
Procedure: as §5

[10] = tested on: platelet aggregation (collagen); test: Anti-platelet aggregation effect, collagen-induced; type: cell-based, Hartley male guinea-pigs; conditions: Cavia porcellus; collagen 2 μg/ml; guinea-pig platelet rich plasma, 37° C., 0.5% DMSO
Procedure: as §5

Solubility in solvents = type: physicochemical

SMILES	Preventive value (Botrytis cinerea [1]; 25 ppm spraying)	Preventive value (Botrytis cinerea [1]; 50 ppm spraying)	Preventive value (Botrytis cinerea [1]; 100 ppm spraying)	Preventive value (Botrytis cinerea [3]; 50 ppm spraying)	Preventive value (Botrytis cinerea [3]; 100 ppm spraying)	Toxicity (cucumber [5]; 25 ppm spraying)	Toxicity (cucumber [5]; 50 ppm spraying)	Toxicity (cucumber [5]; 100 ppm spraying)	other results
CC(C)NC(=O)N1CC(=O)N(c2cc(Cl)cc(Cl)c2)C1=O [Iprodion, iprodion, reference compound]	25	95	100	70	75	none	none	none	Toxicity (cucumber [2]; 50 ppm spraying): none; Toxicity (cucumber [2]; 100 ppm spraying): none; Preventive value (Sclerotinia sclerotiorum [4]; 50 ppm spraying): 100; Preventive value (Sclerotinia sclerotiorum [4]; 100 ppm spraying): 100
CCCCC1CC2=C(C(=O)OC2=O)C(C(O)CCCC)CC2=C1C(=O)OC2=O (stereo not drawn) [Compound A]	100	100	100	73	79	none	none	none	MIC (Sclerotinia cinerea): 3.13 µg/mL (≈ 8.02 µM); MIC (Aspergillus nigar): 3.13 µg/mL (≈ 8.02 µM); MIC (Rhynchosporium secalis): 1.56 µg/mL (≈ 4 µM); MIC (Sclerotinia sclerotiorum [6]): 1.56 µg/mL (≈ 4 µM); MIC (Botrytis cinerea [7]): 0.78 µg/mL (≈ 2 µM); IC50 [8]: 187 µM; IC50 [9]: 484 µM; IC50 [10]: 42 µM; Solubility in solvents (Solubility in solvents; chloroform, ethyl acetate, methanol): readily soluble; Solubility in solvents (Solubility in solvents; water): sparingly soluble
